{"source": "patent US6596258B1", "about": "“Method of obtaining extracellular and intracellular pH images and spectra by magnetic resonance using extrinsic indicators containing 1H or 19F” (Universidad Nacional de Educacion a Distancia, priority 1997, dated 2003)", "key": {"[1]": {"system": "NIH 3T3 mouse fibroblasts", "assay": "Toxicity in cell culture (cell survival after 72 h incubation)", "settings": "for Cell survival (average optical density, an index of cell number): NIH 3T3, mean±SD of four determinations", "description": "NIH 3T3 mouse fibroblasts were grown in Dulbecco modified essential medium (DMEM) supplemented with 10% fetal calf serum (FCS, Hyclone, Logan, Utah, USA).\nResults represent the mean±SD of four determinations from different culture dishes at each concentration."}, "[2]": {"assay": "Kinetics of tissue uptake after intravenous injection, 1H NMR of perchloric acid organ extracts", "settings": "Wistar rats, 1 mmol intravenous"}, "[3]": {"assay": "Plasma kinetics after intravenous (jugular vein) injection, 1H NMR of plasma", "settings": "male Wistar rats"}, "Male Swiss albino mice": {"system": "Male Swiss albino mice", "assay": "Toxicity (LD50) in intact animals, intraperitoneal, method of Miller and Tainter", "settings": "doses as high as 3 g/Kg of body weight", "excerpt": "At least seven different doses, each one of then administered to six mice, which were kept in different cages, were used for each compound."}, "[4]": {"settings": "injection into right jugular vein"}}, "data": [{"smiles": "CCOC(=O)CC(C(=O)O)n1ccnc1", "note": "(racemic) [Compound 9, (±)-3-(etoxycarbonyl)-2-imidazol-1-ilpropionic acid]", "values": [{"measurement": "Cell survival (average optical density, an index of cell number)", "setting": "[1]; 1.0 mM compound", "result": "1.68 ± 0.04"}, {"measurement": "Cell survival (average optical density, an index of cell number)", "setting": "[1]; 5.0 mM compound", "result": "1.38 ± 0.06"}, {"measurement": "Cell survival (average optical density, an index of cell number)", "setting": "[1]; 10.0 mM compound", "result": "1.52 ± 0.13"}, {"measurement": "Cell survival (average optical density, an index of cell number)", "setting": "[1]; 20.0 mM compound", "result": "1.54 ± 0.09"}, {"measurement": "Toxicity in cell culture (in words)", "setting": "[1]; NIH 3T3, 0 to 20 mM", "result": "did not exhibit any toxicity"}, {"measurement": "Concentration reached in brain", "setting": "[2]", "result": "absent"}, {"measurement": "Concentration reached in heart", "setting": "[2]", "result": "< 0.5 μmol/g of body weight"}, {"measurement": "Concentration reached in kidney", "setting": "[2]", "result": "13.9 μmol/g of body weight"}, {"measurement": "Concentration reached in liver", "setting": "[2]", "result": "< 0.2 μmol/g of body weight"}, {"measurement": "Concentration reached in skeletal muscle", "setting": "[2]", "result": "5.8 μmol/g of body weight"}, {"measurement": "Time of peak concentration in kidney", "setting": "[2]", "result": 10, "unit": "min"}, {"measurement": "Time of peak concentration in skeletal muscle", "setting": "[2]", "result": 20, "unit": "min"}, {"measurement": "Clearance from plasma, t1/2", "setting": "[3]; [4]", "result": 6, "unit": "min"}, {"measurement": "Highest concentration in plasma", "setting": "[3]; [4]", "result": 6.6, "unit": "mM"}, {"measurement": "Time after injection at which highest plasma concentration was attained", "setting": "[3]; [4]", "result": 1, "unit": "min"}, {"measurement": "Signs of toxicity during the pharmacokinetic experiment", "setting": "[3]; intravenous injection", "result": "No signs of toxicity were detected"}, {"measurement": "Toxicity in intact animals (in words)", "setting": "Male Swiss albino mice", "result": "did not exhibit any toxicity"}]}, {"smiles": "c1c[nH]cn1", "note": "[Compound 1, Imidazol]", "values": [{"measurement": "Concentration reached in kidney", "setting": "[2]", "result": "12.1 μmol/g of body weight"}, {"measurement": "Concentration reached in skeletal muscle", "setting": "[2]", "result": "5.3 μmol/g of body weight"}, {"measurement": "Time of peak concentration in kidney", "setting": "[2]", "result": 30, "unit": "min"}, {"measurement": "Time of peak concentration in skeletal muscle", "setting": "[2]", "result": "10 to 20", "unit": "min"}]}]}
